Columns and labels:
DNMT3b mRNA = experiment: Northern blot of DNMT3b mRNA expression after antisense treatment; format: cell-based, human; conditions: A549 cells
Description: (§1) To identify antisense oligodeoxynucleotide (ODN) capable of inhibiting DNMT3a or DNMT3b expression in human cancer cells, antisense oligonucleotides were initially screened in T24 (human blader) A549 (human non small cell lung cancers cells at 100 nM. Cells were harvested after 24 hours of treatment, and DNMT3a or DNMT3b RNA expression was analyzed by Northern blot analysis.
(§2) Active oligonucleotides identified in initial screens were then synthesized with phosporothiate backbone modification and 2′-O-methyl modifications of the sugar on the four 5′ and 3′ nucleotides. […] Human A549 or T24 cells were treated with increasing doses of antisense (AS) oligonucleotide from 0-75 nM for 24 hours.
(§3) Briefly, human A549 or T24 human bladder carcinoma cells were seeded in 10 cm tissue culture dishes one day prior to oligonucleotide treatment. The cell lines were obtained from the American Type Culture Collection (ATCC) (Manassas, Va.) and were grown under the recommended culture conditions. Before the addition of the oligonucleotides, cells were washed with PBS (phosphate buffered saline). Next, lipofectin transfection reagent (GIBCO BRL Mississauga, Ontario, Calif.), at a concentration of 6.25 μg/ml, was added to serum free OPTIMEM medium (GIBCO BRL, Rockville, Md.), which was then added to the cells. The oligonucleotides to be screened were then added directly to the cells (i.e., one oligonucleotide per plate of cells).
Cells were harvested, and total RNAs were analyzed by Northern blot analysis. Briefly, total RNA was extracted using RNeasy miniprep columns (QIAGEN). Ten to twenty μg of total RNA was run on a formaldehyde-containing 1% agarose gel with 0.5 M sodium phosphate (pH 7.0) as the buffer system. RNAs were then transferred to nitrocellulose membranes and hybridized with the radiolabelled DNA probes specific for DNMT3a or DNMT3b messenger RNA. Autoradiography was performed using conventional procedures.

DNMT1 mRNA = experiment: Northern blot, non target mRNA DNMT1; format: cell-based, human; conditions: A549 cells
DNMT3a mRNA = experiment: Northern blot of DNMT3a mRNA expression after antisense treatment; format: cell-based, human; conditions: A549 cells
Description: as §1, §2
as §3, with “The oligonucleotides to be screened were then added directly to the cells (i.e., one oligonucleotide per plate of cells).” left out
Cells were harvested, and total RNAs were analyzed by Northern blot analysis. […]

[1] = tested on: Glyceraldehyde 3′-phosphate dehydrogenase mRNA; experiment: Northern blot, non target mRNA Glyceraldehyde 3′-phosphate dehydrogenase; format: cell-based, human; conditions: A549 cells
Description: as §2, §3
Cells were harvested, and total RNAs were analyzed by Northern blot analysis. Briefly, total RNA was extracted using RNeasy miniprep columns (QIAGEN). Ten to twenty μg of total RNA was run on a formaldehyde-containing 1% agarose gel with 0.5 M sodium phosphate (pH 7.0) as the buffer system. […]

DNMT3b protein = experiment: Western blot of DNMT3b protein level; format: cell-based, human; conditions: 0-75 nM, 48 hrs
Description: In order to determine whether treatment with DNMT3a or DNMT3b AS-ODNs would inhibit expression at the protein level, antibodies specific for either DNMT3a or DNMT3b were produced for use in western blots. DNMT3b is expressed at sufficiently high levels in human cancer cells to be detected by our DNMT3b antibody. However, DNMT3a is not expressed at detectable levels. Therefore, both human A549 non small cell lung cancer cells and T24 human bladder cancer cells were treated with doses of the DNMT3b antisense inhibitor (SEQ ID NO: 18) ranging from 0-75 nM for 48 hours and then measured DNMT3b protein levels by Western blot.
Briefly, cells were lysed in buffer containing 1% Triton X-100, 0.5% sodium deoxycholate, 5 mM EDTA, 25 mM Tris-HC1, pH 7.5, plus protease inhibitors. Total protein was quantified by the protein assay reagent from Bio-Rad (Hercules, Calif.). 100 ug of total protein was analyzed by SDS-PAGE. Next, total protein was transferred onto a PVDF membrane and probed with DNMT3b specific antibody. Anti-DNMT3b antibody was raised by immunizing rabbits with a GST fusion protein containing a fragment of the DNMT3b protein (amino acids 4-101 of GenBank Accession No. NM_006892). Rabbit antiserum was tested and found only to react specifically to the human DNMT3b isoform. DNMT3b antiserum was used at 1:500 dilution in Western blots to detect DNA MeTase-6 in total cell lysates. Horse Radish Peroxidase conjugated secondary antibody was used at a dilution of 1:5000 to detect primary antibody binding. The secondary antibody binding was visualized by use of the Enhanced chemiluminescence (ECL) detection kit (Amersham-Pharmacia Biotech., Inc., Piscataway, N.J.).

[2] = tested on: A549 human non small cell lung cancer cells; experiment: Apoptosis, Cell Death Detection ELISA Plus, A549 cells; format: cell-based
Description: (§4) In order to determine the effects of DNMT3a and DNMT3b inhibition on apoptosis of cancer cells, various cancer cell lines (A549 or T24 cells, MDAmb231) were exposed to the DNMT3a and DNMT3b AS-ODN for various periods of time and the effects on apoptosis were determined. For the analysis of apoptosis (active cell death), cells were analyzed using the Cell Death Detection ELISA ^Plus kit (Roche Diagnostic GmBH, Mannheim, Germany) according to the manufacturer's directions. Typically, 10,000 cells were plated in 96-well tissue culture dishes for 2 hours before harvest and lysis. Each sample was analyzed in duplicate. ELISA reading was done using a MR700 plate reader (DYNEX Technology, Ashford, Middlesex, England) at 410 nm. The reference was set at 490 nm.

[3] = tested on: HMEC (human mammary epithelial cells); experiment: Apoptosis in normal cells, HMEC; format: cell-based; conditions: 75 nM, 48 hrs
Description: as §4
(§5) The effect of DNMT3b inhibition on the induction of apoptosis in normal cells was also determined, the results of which are presented in FIG. 10. HMEC (human mammary epithelial cells, ATCC, Manassas, Va.) and MRHF (foreskin fibroblasts, ATCC, Manassas, Va.) were treated with 75 nM of DNMT3b AS (SEQ ID NO: 18) or its mismatch control SEQ ID NO: 19 for 48 hrs as previously described for human cancer cells.

[4] = tested on: MRHF (foreskin fibroblasts); experiment: Apoptosis in normal cells, MRHF; format: cell-based, human; conditions: 75 nM, 48 hrs
Description: as §4, §5

Substance	expression of DNMT3b mRNA (DNMT3b mRNA)	IC50 (DNMT3b mRNA; 0-75 nM, 24 hours, read-out: estimated IC50 value, inhibition of DNMT3b expression) [nM]	expression of non target mRNA DNMT1 (DNMT1 mRNA)	expression of DNMT3a mRNA (DNMT3a mRNA)	expression of non target mRNA Glyceraldehyde 3′-phosphate dehydrogenase [1]	level of DNMT3b protein (DNMT3b protein; A549 human non small cell lung cancer cells)	level of DNMT3b protein (DNMT3b protein; A549 human non small cell lung cancer cells, listed as MG3741)	level of DNMT3b protein (DNMT3b protein; T24 human bladder cancer cells)	level of DNMT3b protein (DNMT3b protein; T24 human bladder cancer cells, listed as MG3741)	apoptosis [2]	apoptosis [3]	apoptosis [4]
SEQ ID NO: 18: DNMT3B AS, 3′UTR (3993), PTI, 5′cgtcgtggctccagttacaa3′ (antisense CGTCGTGGCTCCAGTTACAA; DNA, all phosphorothioate, methylation of C not given here)	dose dependent inhibition	~25	not effected	not effected	not effected	dose dependent effect	inhibits	dose dependent effect	inhibits	induced apotosis	no apoptosis	no apoptosis
SEQ ID NO: 33: DNMT3A AS, 3′UTR (4045), PTI, 5′cgtgagaacgcgccatctgc3′ (antisense CGTGAGAACGCGCCATCTGC; DNA, all phosphorothioate, methylation of C not given here)	not effected		not effected	dose dependent effect	not effected							

Source: patent US20030083292A1, “Inhibitors of DNA methyltransferase isoforms” (priority 2001, published 2003)
